Results from patent publication US20010018445A1, “Pharmaceutical composition for the treatment of hepatocellular carcinoma” (TTY BIOPHARM COMPANY LIMITED, priority 2000, published 2001).

How the values were obtained:
[1] = test system: hepatocellular carcinoma; format: in vivo, human
Description: FIGS. 1-4 show computerized abdominal tomography of a patient, before and after, treatment with thalidomide. […] The serum level of alpha-fetoprotein in the patient is 4335 μg/ml. […] The massive type index lesion at the left hepatic lobe shown in FIG. 3 has been reduced to the size of 3 cm×3 cm. The serum level of alpha-fetoprotein in the patient is 1501 μg/ml. In addition, the scan show the occurrence of ascitic fluid.
A patient weighted 55 kg with medical history of hepatitis C was diagnosed with hepatocellular carcinoma in December 1998 and treated with transcatheter arterial chemoembolization. They were treated with transcatheter arterial chemoembolization again in March and June 1999. According to the computerized abdominal tomography and gastrointestinal track barium enema, hepatocellular carcinoma invasion of the right colon and duodenum was doubted. The patient was treated with radiation on the right liver lobe during July to September 1999. After one-month of treatment, the serum level of alpha-fetoprotein in the patient increased from 105 μg/ml, before treatment, to 535 μg/ml. […] The patient was treated with a forth transcatheter arterial chemoembolization. The serum level of alpha-fetoprotein in the patient was increased to 1572 μg/ml.
The serum level of alpha-fetoprotein in the patient was up to 4335 μg/ml. The liver function exacerbated that the total bilirubin was […], GOT/GPT was 253/115 IU and alkaline phosphase (ALP) was 239 unit/l. […] A capsule containing 100 mg of thalidomide was orally administered to the patient twice daily during the thalidomide treatment. […] However, ascitic fluid was found. The abdominal paracentesis evidenced that ascitic fluid was caused by spontaneous bacterial peritonitis. […] The patient was then administered with antibiotics for the treatment of spontaneous bacterial peritonitis. The patient was still treated with thalidomide to the present.

[2] = test system: hepatocellular carcinoma; assay: Thalidomide treatment of two patients with metastatic and locally advanced hepatocellular carcinoma (Example 3); format: in vivo, human; details: thalidomide 100 mg twice daily
Description: Thalidomide was administered 100 mg twice daily. They were subjected to serum alpha-fetoprotein test every 2-4 weeks and computed tomography or magnetic resonance image examination every 4-8 weeks.

[3] = test system: hepatocellular carcinoma; assay: Clinical observation of thalidomide in hepatocellular carcinoma, summary statement on side effects; format: in vivo, human; details: patients with metastatic hepatocellular carcinoma or where local treatment has failed
From the text: The subject invention utilizes thalidomide to treat metastatic hepatocellular carcinoma and hepatocellular carcinoma, where local treatment has failed.
The therapeutic efficacy of the pharmaceutical composition of the subject invention comprising thalidomide on the treatment of hepatocellular carcinoma has been supported by clinical observation as illustrated in the following examples.

[4] = in water, methanol, ethanol or acetone; cited from earlier work
[5] = test system: tumor necrotic factor-alpha (TNF-I); details: Journal of Infectious Diseases, 1993, 168, p. 408-414; cited from earlier work
[6] = test system: basic fibroblast growth factor-induced angiogenesis; details: Anti-Cancer Drugs, 1996, 7, p.339-343; cited from earlier work
[7] = test system: angiogenesis; details: U.S. Pat. Nos. 5,593,990 and 5,629,327; cited from earlier work
[8] = women who took thalidomide in the first trimester of pregnancy; cited from earlier work
[9] = after treatment with thalidomide

With `O=C1CCC(N2C(=O)c3ccccc3C2=O)C(=O)N1` (stereo not shown) [thalidomide, 2-(2,6-dioxo-3-piperidinyl)-1H-isoindolle-1,3(2H)-dione] the “hepatocellular carcinoma of the two liver lobes on follow-up MRI” value ([1]; after four weeks of treatment) was “significantly remitted”, the “most diffused hepatocellular carcinoma infiltrating left and right hepatic lobes (computerized abdominal tomography)” value [1, 9] was “disappear” and the “variation of the serum level of alpha-fetoprotein (FIG. 5)” value [1, 9] was “significantly decreased”. The “right upper quadrant tenderness” value ([1]; after two weeks of treatment, 100 mg orally twice daily) was “significantly relieved”, the “alkaline phosphase (ALP)” value ([1]; human, in vivo) was 233 unit/l and the “serum level of alpha-fetoprotein” value ([1]; one patient, 100 mg thalidomide capsule orally twice daily, after four weeks, 4335 μg/ml before treatment) was 1501 µg/mL. The “serum alpha-fetoprotein level (FIGS. 6 and 7)” value [2] was “significant reduced”, the “side effects, such as arrest of bone marrow or hepatotoxicity” value [3] was “without significant side effects” and the solubility [4] was “sparingly soluble”. For the same compound, the “inhibition of tumor necrotic factor-alpha (TNF-I)” value [5] was “could effectively inhibit”, the “inhibition of basic fibroblast growth factor-induced angiogenesis” value [6] was “could effectively inhibit” and the inhibition of angiogenesis [7] was “could effectively inhibit”. For the same compound, the teratogenic effect [8] was “would deliver terata, such as phocomelia”.
